Measured values reported in PMC8963105, “A Novel Modulator of the Renin–Angiotensin System, Benzoylaconitine, Attenuates Hypertension by Targeting ACE/ACE2 in Enhancing Vasodilation and Alleviating Vascular Inflammation” (Frontiers in Pharmacology, 2022).

How the values were obtained:
[1] = test system: p-Akt; assay: p-Akt in aorta of SHRs (Western blot); assay type: in vivo, rat; settings: vessel of SHRs, oral 14 days
Source text: All three MDAs (BAC, BMC, and BHC) were purchased from Nature-Standard Co., Ltd. (Shanghai, China) and their purities were all over 98%. The anti-hypertensive effects of MDAs were studied in both acute and chronic experiments. The 16-week-old SHRs were used in animal experiments, and each group had six rats. In the acute experiment, drug administration was via i.v. injection. For i.v. injection, the animals were randomly assigned into four groups: vehicle (0.1% DMSO–0.9% salt solution, n = 6), low-dose group (0.6 mg kg^−1 body weight, n = 6), medium-dose group (2 mg kg^−1 body weight, n = 6), and high-dose group (6 mg kg^−1 body weight, n = 6). The drug was administered using a venous catheter. In chronic experiments, the animals were randomly assigned into five groups: vehicle (5% Tween 80–0.9% salt solution, n = 6), captopril group (5 mg kg^−1 body weight, n = 6), low-dose group (3 mg kg^−1 body weight, n = 6), medium-dose group (10 mg kg^−1 body weight, n = 6), and high-dose group (30 mg kg^−1 body weight, n = 6). Oral administration with drug or 5% Tween 80–0.9% salt solution was carried out once a day, and continued for 14 days. […] Blood pressure was recorded in real time.
The cell samples and tissue sample were collected and placed in ice rapidly. […] Protein concentration in cell lysates was measured using a Bio-Rad DC Protein Assay Kit […]. […]

[2] = test system: Ang (1–7); assay: serum Ang (1–7) by ELISA in SHRs after 14-day oral administration; assay type: in vivo, rat; settings: oral 14 days
Source text: (§1) All three MDAs (BAC, BMC, and BHC) were purchased from Nature-Standard Co., Ltd. (Shanghai, China) and their purities were all over 98%. The anti-hypertensive effects of MDAs were studied in both acute and chronic experiments. The 16-week-old SHRs were used in animal experiments, and each group had six rats. In the acute experiment, drug administration was via i.v. injection. For i.v. injection, the animals were randomly assigned into four groups: vehicle (0.1% DMSO–0.9% salt solution, n = 6), low-dose group (0.6 mg kg^−1 body weight, n = 6), medium-dose group (2 mg kg^−1 body weight, n = 6), and high-dose group (6 mg kg^−1 body weight, n = 6). The drug was administered using a venous catheter. […] Blood pressure was recorded in real time.
(§2) Blood samples were collected from the left femoral artery of rats at the end point, followed by centrifugation at 1,000 × g for 15 min at 4°C. […] The concentrations of circulating ACE, ACE2, Ang I, Ang II, Ang (1–7), TNF-α, and IL-6 in serum were measured using the ELISA kits [ACE, cat#xy-R2401c, X-Y Biotechnology, Shanghai, China; ACE2, cat#xy-ACE2-Ra, X-Y Biotechnology; Ang I, cat#xy-E12541, X-Y Biotechnology; Ang II, cat#xy-R1430c, X-Y Biotechnology; Ang (1–7), cat#xy-Ang1-7-Ra, X-Y Biotechnology; TNF-α, cat#GM1149, Servicebio, Shanghai, China; IL-6, cat#GM1154, Servicebio] according to the manufacturer’s instructions. […]

[3] = test system: Ang II; assay: serum Ang II by ELISA in SHRs after 14-day oral administration; assay type: in vivo, rat; settings: oral 14 days
Source text: as §1, §2

[4] = test system: ACE2; assay: serum ACE2 by ELISA in SHRs after 14-day oral administration; assay type: in vivo, rat; settings: oral 14 days
Source text: as §1, §2

[5] = target: T1, recombinant human ACE (rhACE) (Homo sapiens, UniProt P12821); assay: SPR assay with rhACE; assay type: binding; settings: rhACE on chip, 5% DMSO–1.05× PBS
T1 construct: purchased Proteintech
T1 sequence (P12821 30-1306): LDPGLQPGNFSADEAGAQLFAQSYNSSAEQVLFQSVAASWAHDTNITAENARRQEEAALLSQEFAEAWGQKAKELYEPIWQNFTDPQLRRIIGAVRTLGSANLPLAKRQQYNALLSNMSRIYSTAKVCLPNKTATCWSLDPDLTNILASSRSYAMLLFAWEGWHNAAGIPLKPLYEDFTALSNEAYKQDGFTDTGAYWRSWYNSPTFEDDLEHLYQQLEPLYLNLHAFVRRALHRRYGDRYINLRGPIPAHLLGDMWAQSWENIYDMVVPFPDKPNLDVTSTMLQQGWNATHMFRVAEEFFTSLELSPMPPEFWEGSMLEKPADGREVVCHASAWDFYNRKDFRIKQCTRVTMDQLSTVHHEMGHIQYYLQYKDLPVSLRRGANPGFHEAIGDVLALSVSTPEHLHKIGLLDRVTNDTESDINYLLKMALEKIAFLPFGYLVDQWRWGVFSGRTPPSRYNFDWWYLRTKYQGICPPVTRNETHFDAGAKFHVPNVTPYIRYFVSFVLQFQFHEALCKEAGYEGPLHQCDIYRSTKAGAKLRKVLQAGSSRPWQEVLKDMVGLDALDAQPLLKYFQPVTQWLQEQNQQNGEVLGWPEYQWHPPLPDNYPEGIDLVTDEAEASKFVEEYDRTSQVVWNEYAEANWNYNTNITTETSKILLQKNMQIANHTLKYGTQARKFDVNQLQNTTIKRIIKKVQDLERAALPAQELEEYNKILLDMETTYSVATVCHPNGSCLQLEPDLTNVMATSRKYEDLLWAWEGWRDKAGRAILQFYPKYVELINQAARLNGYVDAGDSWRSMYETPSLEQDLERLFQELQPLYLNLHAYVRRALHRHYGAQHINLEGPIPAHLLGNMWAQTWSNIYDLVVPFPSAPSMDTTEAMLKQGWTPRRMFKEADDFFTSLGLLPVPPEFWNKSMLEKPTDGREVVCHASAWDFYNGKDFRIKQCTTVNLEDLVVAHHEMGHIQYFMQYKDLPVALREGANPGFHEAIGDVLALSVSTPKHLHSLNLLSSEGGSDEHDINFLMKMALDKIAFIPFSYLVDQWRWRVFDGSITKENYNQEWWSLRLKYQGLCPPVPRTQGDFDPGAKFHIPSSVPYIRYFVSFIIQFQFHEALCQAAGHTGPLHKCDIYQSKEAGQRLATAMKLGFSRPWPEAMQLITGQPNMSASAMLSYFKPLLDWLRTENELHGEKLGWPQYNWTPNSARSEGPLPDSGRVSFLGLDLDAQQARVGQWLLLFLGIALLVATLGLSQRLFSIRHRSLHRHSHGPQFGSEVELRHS
Experimental: To screen the potential targets of the MDAs in hypertension, a CVDPlatform (www.cbligand.org/CVD) was used as previously reported ([Zhang et al., 2016a]). The results of database screening were verified by virtual docking with Discovery Studio 3.5 (BIOVIA, San Diego, CA, United States) and then validated in the SPR assay. In the SPR assay, a solution of protein standards was prepared, and the concentration of recombinant human ACE (rhACE) protein and rhACE2 (Proteintech, Rosemont, IL, United States) solution was set to 500 μg ml^−1. […] Finally, the level of binding between the proteins and each molecule was determined based on the K d value.

CCN1CC2(COC)C(O)CC(OC)C34C5CC6(O)C(OC)C(O)C(O)(C5C6OC(=O)c5ccccc5)C(C(OC)C23)C14 (centres unmarked) [BAC, Benzoylaconitine]
p-Akt [1]: activated | level of Ang (1–7) in blood [2]: significantly increased | level of Ang II in blood [3]: decreased | level of ACE2 in blood [4]: did not change | Kd [5]: 11 µM
